In US4778803A, “Nitrogen-arylmethoxy-thiophene derivatives and acid addition salts thereof, and pharmaceutical preparations containing these compounds” (Chemie Linz Aktiengesellschaft, priority 1986, dated 1988):

Test system: leukotriene B4 (LTB4) formation in human granulocytes
Assay: inhibitory action on leukotriene B4 (LTB4) formation induced by the calcium ionophor A 23-187 in human granulocytes
Format: cell-based
Settings: 10 min, 10^7 cells per ml, 10 minutes at 37° C. with compound, then 10 minutes with A 23 187 (final concentration 1 μm), HPLC, 280 nm, 2 experiments per concentration, read-out: concentration which led to a 50% inhibition (IC50) of LTB4 formation
Protocol: To investigate the pharmacological properties of the substances according to the invention, their inhibitory action on leukotriene B4 (LTB4) formation induced by the calcium ionophor A 23-187 was measured. For this, human granulocytes were washed, the cell count was adjusted to 10^7 cells per ml and the cells were incubated for 10 minutes at 37° C. with the compounds according to the invention, such as, for example, 1-(5-(2-quinolinylmethoxy)-2-thienyl)-1-hexanone (compound according to Example 3) or alpha-pentyl-5-(2-quinolinylmethoxy)-2-thiophenemethanol (compound according to Example 5), which had been dissolved to 10^-2 M in dimethylsulfoxide and diluted to the desired concentration with physiological NaCl. The cells were then incubated for a further 10 minutes, after addition of A 23 187 (final concentration 1 μm). The reaction was stopped by addition of glacial acetic acid. The mixture was centrifuged, the supernatant was pipetted off and prostaglandin B2 was added as an internal standard.
The lipid fraction was resolved via HPLC, LTB4 and its 20--OH-- and 20--COOH-metabolites being determined photometrically at 280 nm.
2 experiments were carried out for each concentration value of the substances according to the invention and the concentration which led to a 50% inhibition (IC50) of LTB4 formation was determined for each substance. […]

Row | IC50 [µM] | Structure (SMILES)
1 | 0.2 | CCCCCC(=O)c1ccc(OCc2ccc3ccccc3n2)s1 [Example 3, 1-[5-(2-Quinolinylmethoxy)-2-thienyl]-1-hexanone]
2 | 1 | CCCCCC(O)c1ccc(OCc2ccc3ccccc3n2)s1 (stereo not drawn) [Example 5, α-Pentyl-5-(2-quinolinylmethoxy)-2-thiophenemethanol]
